From ChEMBL document CHEMBL3046147, “Synthesis and Herbicidal Activity of 1-Arylalkyl-3-pyrrolin-2-one Derivatives” (J Pestic Sci, 2000)
Calls of active or inactive are those of the source. No cut-off for these calls is given here.

Legend:
[1] = test system: Echinochloa oryzicola; experiment: Herbicidal activity against Echinochloa oryzicola under greenhouse condition assessed as growth inhibition at 125 g /ha measured after 6 days; type: functional, organism-based
[2] = test system: Echinochloa oryzicola; experiment: Herbicidal activity against Echinochloa oryzicola grown in water-drained pot under greenhouse condition assessed as growth inhibition at 500 g /ha measured after 33 days; type: functional, organism-based
[3] = test system: Echinochloa oryzicola; experiment: Herbicidal activity against Echinochloa oryzicola under greenhouse condition assessed as growth inhibition at 250 g /ha measured after 27 days; type: functional, organism-based
[4] = test system: Echinochloa oryzicola; experiment: Herbicidal activity against Echinochloa oryzicola under greenhouse condition assessed as growth inhibition at 125 g /ha measured after 20 days; type: functional, organism-based
[5] = test system: Echinochloa oryzicola; experiment: Herbicidal activity against Echinochloa oryzicola under greenhouse condition assessed as growth inhibition at 125 g /ha measured after 27 days; type: functional, organism-based
[6] = test system: Pontederia vaginalis; experiment: Herbicidal activity against Monochoria vaginalis at 500 g /ha treated at 1.5 to 2-leaf stage measured after 26 days by outdoor concrete pot test; type: functional, organism-based
[7] = test system: Echinochloa oryzicola; experiment: Herbicidal activity against Echinochloa oryzicola under greenhouse condition assessed as growth inhibition at 1000 g /ha measured after 13 days; type: functional, organism-based
[8] = test system: Echinochloa oryzicola; experiment: Herbicidal activity against Echinochloa oryzicola under greenhouse condition assessed as growth inhibition at 250 g /ha measured after 13 days; type: functional, organism-based
[9] = test system: Echinochloa oryzicola; experiment: Herbicidal activity against Echinochloa oryzicola grown in water-drained pot under greenhouse condition assessed as growth inhibition at 125 g /ha measured after 33 days; type: functional, organism-based
[10] = test system: Echinochloa oryzicola; experiment: Herbicidal activity against Echinochloa oryzicola grown in water-drained pot under greenhouse condition assessed as growth inhibition at 500 g /ha measured after 13 days; type: functional, organism-based
[11] = test system: Echinochloa oryzicola; experiment: Herbicidal activity against Echinochloa oryzicola grown in water-drained pot under greenhouse condition assessed as growth inhibition at 125 g /ha measured after 20 days; type: functional, organism-based
[12] = test system: Echinochloa oryzicola; experiment: Herbicidal activity against Echinochloa oryzicola under greenhouse condition assessed as growth inhibition at 1000 g /ha measured after 33 days; type: functional, organism-based
[13] = test system: Elatine triandra; experiment: Herbicidal activity against Elatine triandra at 1000 g /ha treated at 1 to 2-pairs of leaf stage measured after 26 days by outdoor concrete pot test; type: functional, organism-based
[14] = test system: Sagittaria pygmaea; experiment: Herbicidal activity against Sagittaria pygmaea at 250 g /ha treated at 0.5 to 1-leaf stage measured after 26 days by outdoor concrete pot test; type: functional, organism-based
[15] = test system: Rotala indica; experiment: Herbicidal activity against Rotala indica at 250 g /ha treated at 1 to 2-pairs of leaf stage measured after 26 days by outdoor concrete pot test; type: functional, organism-based
[16] = test system: Echinochloa oryzicola; experiment: Herbicidal activity against Echinochloa oryzicola under greenhouse condition assessed as growth inhibition at 125 g /ha measured after 42 days; type: functional, organism-based
[17] = test system: Echinochloa oryzicola; experiment: Herbicidal activity against Echinochloa oryzicola grown in water-drained pot under greenhouse condition assessed as time duration of residual effect at 500 g /ha; type: functional
[18] = test system: Sagittaria pygmaea; experiment: Herbicide activity against Sagittaria pygmaea under greenhouse condition compound treated at 0.5 leaf-stage measured after 14 to 20 days; type: functional
[19] = test system: Echinochloa oryzicola; experiment: Herbicidal activity against Echinochloa oryzicola at 250 g /ha treated at 1.5 to 2-leaf stage measured after 26 days by outdoor concrete pot test; type: functional, organism-based
[20] = test system: Echinochloa oryzicola; experiment: Herbicidal activity against Echinochloa oryzicola at 1000 g /ha treated at 1.5 to 2-leaf stage measured after 26 days by outdoor concrete pot test; type: functional, organism-based
[21] = test system: Echinochloa oryzicola; experiment: Herbicidal activity against Echinochloa oryzicola grown in water-drained pot under greenhouse condition assessed as growth inhibition at 125 g /ha measured after 42 days; type: functional, organism-based
[22] = test system: Echinochloa oryzicola; experiment: Herbicidal activity against Echinochloa oryzicola under greenhouse condition assessed as growth inhibition at 250 g /ha measured after 33 days; type: functional, organism-based
[23] = test system: Elatine triandra; experiment: Herbicidal activity against Elatine triandra at 250 g /ha treated at 1 to 2-pairs of leaf stage measured after 26 days by outdoor concrete pot test; type: functional, organism-based
[24] = test system: Schoenoplectiella juncoides; experiment: Herbicidal activity against Schoenoplectiella juncoides at 250 g /ha treated at 1.5 to 2.1-leaf stage measured after 26 days by outdoor concrete pot test; type: functional, organism-based

Structure (SMILES): CC1=C(c2ccccc2)C(=O)N(C(C)(C)c2nc3ccccc3s2)C1
- growth inhibition (GI) [1]: Active
- growth inhibition (GI) [2]: Active
- growth inhibition (GI) [3]: inactive
- growth inhibition (GI) [4]: Active
- growth inhibition (GI) [5]: Active
- growth inhibition (GI) [6]: Active
- growth inhibition (GI) [7]: Active
- growth inhibition (GI) [8]: Active
- growth inhibition (GI) [9]: inactive
- growth inhibition (GI) [10]: Active
- growth inhibition (GI) [11]: inactive
- growth inhibition (GI) [12]: Active
- growth inhibition (GI) [13]: Active
- growth inhibition (GI) [14]: inactive
- growth inhibition (GI) [15]: Active
- growth inhibition (GI) [16]: Active
- Time [17]: >42 days
- MED [18]: 20 g/acre
- growth inhibition (GI) [19]: Active
- growth inhibition (GI) [20]: Active
- growth inhibition (GI) [21]: inactive
- growth inhibition (GI) [22]: inactive
- growth inhibition (GI) [23]: Active
- growth inhibition (GI) [24]: inactive
